Key:
MAP kinase p38 = MAP kinase p38 (Homo sapiens, UniProt O15264+Q15759+Q16539+P53778); test: In vitro inhibitory concentration against radioligand [3H]SB-202190 binding to CSBP kinase in human monocytic cell line, THP-1
Mus musculus = test: In vivo inhibition of LPS-induced TNF production in mice 50 mg/Kg.; format: functional
[1] = target: T1, Prostaglandin G/H synthase 1 (Ovis aries, UniProt P05979); test: Inhibitory concentration against Prostaglandin H2 synthase 1 (PGHS-1) from ram seminal vesicle
T1 sequence (P05979 whole entry): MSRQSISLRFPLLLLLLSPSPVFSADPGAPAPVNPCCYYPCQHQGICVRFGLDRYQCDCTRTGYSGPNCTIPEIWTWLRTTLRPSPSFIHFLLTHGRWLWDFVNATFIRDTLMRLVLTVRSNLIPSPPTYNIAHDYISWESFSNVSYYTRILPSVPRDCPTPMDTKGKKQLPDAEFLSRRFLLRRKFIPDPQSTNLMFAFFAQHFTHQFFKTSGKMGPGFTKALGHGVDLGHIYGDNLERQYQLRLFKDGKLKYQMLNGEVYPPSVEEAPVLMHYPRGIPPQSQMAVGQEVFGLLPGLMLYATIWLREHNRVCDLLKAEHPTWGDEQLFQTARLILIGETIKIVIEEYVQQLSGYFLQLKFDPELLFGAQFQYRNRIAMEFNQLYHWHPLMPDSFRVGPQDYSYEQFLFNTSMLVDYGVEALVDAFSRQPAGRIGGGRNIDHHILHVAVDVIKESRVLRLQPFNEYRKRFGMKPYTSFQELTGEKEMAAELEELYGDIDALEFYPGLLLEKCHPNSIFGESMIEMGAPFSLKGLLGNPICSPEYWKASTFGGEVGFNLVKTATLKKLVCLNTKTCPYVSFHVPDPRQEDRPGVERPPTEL

[2] = target: T2, Polyunsaturated fatty acid 5-lipoxygenase (Rattus norvegicus, UniProt P12527); test: Inhibitory concentration against 5-lipoxygenase in rat RBL-1 cells; format: cell-based
T2 sequence (P12527 whole entry): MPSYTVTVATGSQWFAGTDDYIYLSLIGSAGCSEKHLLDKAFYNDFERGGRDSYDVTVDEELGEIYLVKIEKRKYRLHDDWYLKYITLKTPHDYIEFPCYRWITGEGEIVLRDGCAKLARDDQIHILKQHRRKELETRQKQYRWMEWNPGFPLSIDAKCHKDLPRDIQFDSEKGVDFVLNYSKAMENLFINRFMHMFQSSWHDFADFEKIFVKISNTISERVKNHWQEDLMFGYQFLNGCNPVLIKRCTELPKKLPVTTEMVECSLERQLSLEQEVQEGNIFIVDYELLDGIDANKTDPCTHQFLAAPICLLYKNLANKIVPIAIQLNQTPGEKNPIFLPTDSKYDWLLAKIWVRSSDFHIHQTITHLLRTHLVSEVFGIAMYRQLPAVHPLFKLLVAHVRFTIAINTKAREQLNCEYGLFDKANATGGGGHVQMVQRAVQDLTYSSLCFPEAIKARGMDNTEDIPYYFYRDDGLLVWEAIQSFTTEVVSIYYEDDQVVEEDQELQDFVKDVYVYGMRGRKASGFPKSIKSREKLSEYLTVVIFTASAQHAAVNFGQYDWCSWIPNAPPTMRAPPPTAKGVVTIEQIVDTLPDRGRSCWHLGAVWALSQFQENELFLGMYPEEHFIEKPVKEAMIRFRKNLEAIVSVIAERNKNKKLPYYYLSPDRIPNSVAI

| Structure (SMILES) | IC50 (MAP kinase p38) | Change (Mus musculus) | IC50 [1] | IC50 [2] |
| --- | --- | --- | --- | --- |
| Cc1cc(-c2c(-c3ccc(F)cc3)ncn2CCCN2CCOCC2)cc(C)n1 | 25 µM |  |  |  |
| Fc1ccc(-c2ncn(CCCN3CCOCC3)c2-c2ccnc(Cl)c2)cc1 | 1.89 µM |  |  |  |
| Fc1ccc(-c2ncn(C3CC3)c2-c2ccncc2)cc1 | 0.08 µM | -79% | 16 µM | 60 µM |
| O=S(=O)(CCCn1cnc(-c2ccc(F)cc2)c1-c1ccncc1)c1ccccc1 | 1.81 µM | -42% |  |  |
| CN(CCCn1cnc(-c2ccc(F)cc2)c1-c1ccncc1)Cc1ccccc1 | 0.13 µM | -28% |  |  |
| Fc1ccc(-c2ncn(CCCN3CCOCC3)c2-c2ccccn2)cc1 | 6.46 µM |  |  |  |
| FC(F)(F)c1cccc(-c2ncn(CCCN3CCOCC3)c2-c2ccncc2)c1 | 0.46 µM |  |  |  |
| CSc1cccc(-c2ncn(CCCN3CCOCC3)c2-c2ccncc2)c1 | 0.29 µM | -10% |  |  |
| C[S+]([O-])CCCn1cnc(-c2ccc(F)cc2)c1-c1ccncc1 (stereo not drawn) | 1.4 µM | -43% |  |  |
| C[S+]([O-])c1cccc(-n2cnc(-c3ccc(F)cc3)c2-c2ccncc2)c1 (stereo not drawn) | 0.52 µM | -20% |  |  |
| Fc1ccc(-c2ncn(CCCN3CCOCC3)c2-c2ccnc3ccccc23)cc1 | 9 µM | -19% |  |  |
| CCOCCCn1cnc(-c2ccc(F)cc2)c1-c1ccncc1 | 0.1 µM | -29% |  |  |
| Clc1ccc(-c2ncn(CCCN3CCOCC3)c2-c2ccncc2)cc1Cl | 0.32 µM | -73% | > 100 µM | > 100 µM |
| CC(C)n1cnc(-c2ccc(F)cc2)c1-c1ccncc1 | 0.12 µM | -56% |  |  |
| CSc1ccc(-n2cnc(-c3ccc(F)cc3)c2-c2ccncc2)cc1 | 1.47 µM | -20% |  |  |
| CSc1ccc(-c2nc(-c3cccc(F)c3)c(-c3ccncc3)[nH]2)cc1 | 0.34 µM |  |  |  |
| Fc1ccc(-c2ncn(CCCSc3ccccc3)c2-c2ccncc2)cc1 | 0.08 µM | -42% |  |  |
| CSCCCn1cnc(-c2ccc(F)cc2)c1-c1ccncc1 | 0.19 µM | -49% |  |  |
| C[S+]([O-])c1ccccc1-n1cnc(-c2ccc(F)cc2)c1-c1ccncc1 (stereo not drawn) | 0.71 µM | 40% |  |  |
| Fc1ccc(-c2ncn(CCCN3CCOCC3)c2-c2cccnc2)cc1 | 64.7 µM |  |  |  |
| O=C(O)CCCn1cnc(-c2ccc(F)cc2)c1-c1ccncc1 | 3.83 µM | -47% |  |  |
| Fc1ccc(-c2ncn(CCCN3CCCCC3)c2-c2ccncc2)cc1 | 1.17 µM | -26% |  |  |
| Fc1ccc(-c2ncn(CCCNCc3ccccc3)c2-c2ccncc2)cc1 | 0.07 µM | -43% |  |  |
| CSc1ccc(-c2nc3n(c2-c2ccncc2)CCC3)cc1 |  |  | 100 µM | 3 µM |

| Structure (SMILES) | IC50 (MAP kinase p38) | Change (Mus musculus) | IC50 [1] | IC50 [2] |
| --- | --- | --- | --- | --- |
| Nc1cc(-c2c(-c3ccc(F)cc3)ncn2CCCN2CCOCC2)ccn1 | 1.18 µM | -38% |  |  |
| Fc1ccc(-c2nc3n(c2-c2ccncc2)CCS3)cc1 |  |  | 5.4 µM | 10 µM |
| Cc1cc(-c2c(-c3ccc(F)cc3)ncn2CCCN2CCOCC2)ccn1 | 3.05 µM | -37% |  |  |
| FC(F)(F)c1cc(-c2ncn(CCCN3CCOCC3)c2-c2ccncc2)cc(C(F)(F)F)c1 | 114 µM |  |  |  |
| Clc1cccc(-c2ncn(CCCN3CCOCC3)c2-c2ccncc2)c1 | 0.21 µM | -49% |  |  |
| Fc1ccc(-c2ncn(CCCN3CCCC3)c2-c2ccncc2)cc1 | 0.34 µM | -17% |  |  |
| Fc1ccc(-c2ncn(CCN3CCOCC3)c2-c2ccncc2)cc1 | 0.76 µM | -25% |  |  |
| CSc1cccc(-n2cnc(-c3ccc(F)cc3)c2-c2ccncc2)c1 | 0.12 µM | -23% |  |  |
| CSc1ccccc1-n1cnc(-c2ccc(F)cc2)c1-c1ccncc1 | 0.08 µM | 29% |  |  |
| [O-][S+](CCCn1cnc(-c2ccc(F)cc2)c1-c1ccncc1)c1ccccc1 (stereo not drawn) | 0.63 µM |  |  |  |
| Fc1ccc(-c2ncn(CCCOc3ccccc3)c2-c2ccncc2)cc1 | 0.07 µM | -14% |  |  |
| Fc1ccc(-c2ncn(CCCCN3CCOCC3)c2-c2ccncc2)cc1 | 0.48 µM | -40% |  |  |
| CCN(CC)CCCn1cnc(-c2ccc(F)cc2)c1-c1ccncc1 | 0.27 µM | -21% |  |  |
| Cc1cc(-c2[nH]c(-c3ccc([S+](C)[O-])cc3)nc2-c2cccc(F)c2)ccn1 (stereo not drawn) | 0.37 µM | -64% |  |  |
| COC(=O)CCCn1cnc(-c2ccc(F)cc2)c1-c1ccncc1 | 0.29 µM | -33% |  |  |
| FC(F)(F)c1ccc(-c2ncn(CCCN3CCOCC3)c2-c2ccncc2)cc1 | 2.98 µM |  |  |  |
| CC(C)(C)n1cnc(-c2ccc(F)cc2)c1-c1ccncc1 | 4.74 µM | -35% |  |  |
| C[S+]([O-])c1ccc(-n2cnc(-c3ccc(F)cc3)c2-c2ccncc2)cc1 (stereo not drawn) | 0.75 µM |  |  |  |
| C[S+]([O-])c1cccc(-c2ncn(CCCN3CCOCC3)c2-c2ccncc2)c1 (stereo not drawn) | 4.95 µM |  |  |  |
| CS(=O)(=O)CCCn1cnc(-c2ccc(F)cc2)c1-c1ccncc1 | 0.51 µM |  |  |  |
| NCCCn1cnc(-c2ccc(F)cc2)c1-c1ccncc1 | 0.15 µM |  |  |  |
| Fc1ccc(-c2nc[nH]c2-c2ccncc2)cc1 | 0.21 µM | -82% | > 100 µM | > 100 µM |
| C[S+]([O-])c1ccc(-c2nc(-c3ccc(F)cc3)c(-c3ccncc3)[nH]2)cc1 (stereo not drawn) [SB-203580] |  | -83% |  |  |
| Fc1ccc(-c2ncn(CCCN3CCOCC3)c2-c2ccncc2)cc1 [SB-210313] |  | -55% |  | > 100 µM |
